# Read-outs that look alike come from different tables or passages of the source.
# Key:
# HIV-1 (IIIB) = assay: microbe, parasite or virus in culture; format: cell-based
# in vitro = details: human; for CC50 at 5 days: uninfected MT-4 cells
# physchem = details: 23 °C, thermodynamic from solid; for solubility thermodynamic: fassif; for solubility thermodynamic at 24 h: FaSSIF
# [1] = Human immunodeficiency virus 1, IIIB, MT4, 120 h, read-out: MT4 EC50 (nM)
# [2] = Human immunodeficiency virus 1, MT4, 120 h, HIV-1 (IIIB) replication in MT-4 cells, 5 days incubation, Cell Titer Glo, read-out: MT4 EC50
SMILES,EC50 (HIV-1 (IIIB); [1]),CC50 (in vitro),solubility thermodynamic (physchem),EC50 (HIV-1 (IIIB); [2]),CC50 at 5 days (in vitro),solubility thermodynamic at 24 h (physchem)
"CC1=NO[C@@]2(CC[C@H](C)N3C[C@H]2n2cc(C(=O)NCc4ccc(F)cc4F)c(=O)c(OCOC(=O)N(C)Cc4ccc(C(=O)O)cc4OP(=O)(O)O)c2C3=O)C1 [Compound 74, 4-(((((((3′S,5S,7′R)-10′-((2,4-difluorobenzyl)carbamoyl)-3,3′-dimethyl-1′,11′-dioxo-1′,4′,5′,11′-tetrahydro-3′H,4H,7′H-spiro[isoxazole-5,6′-[2,7]methanopyrido[1,2-a][1,4]diazonin]-12′-yl)oxy)methoxy)carbonyl)(methyl)amino)methyl)-3-(phosphonooxy)benzoic acid]",6.61 nM,29400 nM,4860 µg/mL,–,–,–
"CC1=NO[C@@]2(CC[C@H](C)N3C[C@H]2n2cc(C(=O)NCc4ccc(F)cc4F)c(=O)c(OCOC(=O)O[C@@H]4CC[C@H](OP(=O)(O)O)C4)c2C3=O)C1 [Compound 54, (((3′S,5S,7′R)-10′-((2,4-difluorobenzyl)carbamoyl)-3,3′-dimethyl-1′11′-dioxo-1′,4′,5′,11′-tetrahydro-3′H,4H,7′H-spiro[isoxazole-5,6′-[2,7]methanopyrido[1,2-a][1,4]diazonin]-12′-yl)oxy)methyl ((cis)-3-(phosphonooxy)cyclopentyl) carbonate]",–,–,–,9.29 nM,≥ 50000 nM,5280 µg/mL
"CC1=NO[C@@]2(CC[C@H](C)N3C[C@H]2n2cc(C(=O)NCc4ccc(F)cc4F)c(=O)c(OC(=O)N(C)c4ncccc4CN(C)C(=O)OCOP(=O)(O)O)c2C3=O)C1 [Compound 61, (phosphonooxy)methyl ((2-(((((3′S,5S,7′R)-10′-((2,4-difluorobenzyl)carbamoyl)-3,3′-dimethyl-1′,11′-dioxo-1′,4′,5′,11′-tetrahydro-3′H,4H,7′H-spiro[isoxazole-5,6′-[2,7]methanopyrido[1,2-a][1,4]diazonin]-12′-yl)oxy)carbonyl)(methyl)amino)pyridin-3-yl)methyl)(methyl)carbamate]",1.39 nM,15200 nM,4140 µg/mL,–,–,–
"CCCCCCCCCCCCCC(=O)OCc1ccccc1C(=O)Oc1c2n(cc(C(=O)NCc3ccc(F)cc3F)c1=O)[C@@H]1CN(C2=O)[C@@H](C)CC[C@]12CC(C)=NO2 [Compound 92, (3′S,5S,7′R)-10′-((2,4-difluorobenzyl)carbamoyl)-3,3′-dimethyl-1′,11′-dioxo-1′,4′,5′,11′-tetrahydro-3′H,4H,7′H-spiro[isoxazole-5,6′-[2,7]methanopyrido[1,2-a][1,4]diazonin]-12′-yl 2-((tetradecanoyloxy)methyl)benzoate]",–,–,–,4.42 nM,≥ 50000 nM,3 µg/mL
"CC1=NO[C@@]2(CC[C@H](C)N3C[C@H]2n2cc(C(=O)NCc4ccc(F)cc4F)c(=O)c(OC(=O)N(C)c4ncccc4CN(CCO)C(=O)OCOP(=O)(O)O)c2C3=O)C1 [Compound 35, (phosphonooxy)methyl ((2-(((((3′S,5S,7′R)-10′-((2,4-difluorobenzyl)carbamoyl)-3,3′-dimethyl-1′,11′-dioxo-1′,4′,5′,11′-tetrahydro-3′H,4H,7′H-spiro[isoxazole-5,6′-[2,7]methanopyrido[1,2-a][1,4]diazonin]-12′-yl)oxy)carbonyl)(methyl)amino)pyridin-3-yl)methyl)(2-hydroxyethyl)carbamate]",2.04 nM,11600 nM,4460 µg/mL,–,–,–
"CC1=NO[C@@]2(CC[C@H](C)N3C[C@H]2n2cc(C(=O)NCc4ccc(F)cc4F)c(=O)c(OCOC(=O)N(C)c4ncccc4COC(=O)[C@@H](N)CCCCN)c2C3=O)C1 [Compound 10, (2-((((((3′S,5S,7′R)-10′-((2,4-difluorobenzyl)carbamoyl)-3,3′-dimethyl-1′,11′-dioxo-1′,4′,5′,11′-tetrahydro-3′H,4H,7′H-spiro[isoxazole-5,6′-[2,7]methanopyrido[1,2-a][1,4]diazonin]-12′-yl)oxy)methoxy)carbonyl)(methyl)amino)pyridin-3-yl)methyl L-lysinate]",–,–,–,3.19 nM,10200 nM,3320 µg/mL
"CC1=NO[C@@]2(CC[C@H](C)N3C[C@H]2n2cc(C(=O)NCc4ccc(F)cc4F)c(=O)c(OC(=O)OCCC(C)(C)c4c(CC(=O)O)cc(C)cc4OP(=O)(O)O)c2C3=O)C1 [Compound 25, 2-(2-(4-(((((3′S,5S,7′R)-10′-((2,4-difluorobenzyl)carbamoyl)-3,3′-dimethyl-1′,11′-dioxo-1′,4′,5′,11′-tetrahydro-3′H,4H,7′H-spiro[isoxazole-5,6′-[2,7]methanopyrido[1,2-a][1,4]diazonin]-12′-yl)oxy)carbonyl)oxy)-2-methylbutan-2-yl)-5-methyl-3-(phosphonooxy)phenyl)acetic acid]",1.43 nM,11600 nM,4760 µg/mL,–,–,–
"CCCCCCCCCCCCCC(=O)Oc1ccc(C(=O)Oc2c3n(cc(C(=O)NCc4ccc(F)cc4F)c2=O)[C@@H]2CN(C3=O)[C@@H](C)CC[C@]23CC(OC)=NO3)cc1 [Compound 99, (3′S,5S,7′R)-10′-((2,4-difluorobenzyl)carbamoyl)-3-methoxy-3′-methyl-1′,11′-dioxo-1′,4′,5′,11′-tetrahydro-3′H,4H,7′H-spiro[isoxazole-5,6′-[2,7]methanopyrido[1,2-a][1,4]diazonin]-12′-yl 4-(tetradecanoyloxy)benzoate]",–,–,–,3.03 nM,≥ 50000 nM,13 µg/mL
"CC1=NO[C@@]2(CC[C@H](C)N3C[C@H]2n2cc(C(=O)NCc4ccc(F)cc4F)c(=O)c(OC(=O)N(C)c4ncccc4CN(CC(=O)OCc4ccccc4)C(=O)OCOP(=O)(O)O)c2C3=O)C1 [Compound 33, benzyl N-((2-(((((3′S,5S,7′R)-10′-((2,4-difluorobenzyl)carbamoyl)-3,3′-dimethyl-1′,11′-dioxo-1′,4′,5′,11′-tetrahydro-3′H,4H,7′H-spiro[isoxazole-5,6′-[2,7]methanopyrido[1,2-a][1,4]diazonin]-12′-yl)oxy)carbonyl)(methyl)amino)pyridin-3-yl)methyl)-N-(((phosphonooxy)methoxy)carbonyl)glycinate]",2.34 nM,12900 nM,4170 µg/mL,–,–,–
"CC1=NO[C@@]2(CC[C@H](C)N3C[C@H]2n2cc(C(=O)NCc4ccc(F)cc4F)c(=O)c(OCOC(=O)N(C)c4ncccc4CN(CC(=O)O)C(=O)OCOP(=O)(O)O)c2C3=O)C1 [Compound 7, N-((2-((((((3′S,5S,7′R)-10′-((2,4-difluorobenzyl)carbamoyl)-3,3′-dimethyl-1′,11′-dioxo-1′,4′,5′,11′-tetrahydro-3′H,4H,7′H-spiro[isoxazole-5,6′-[2,7]methanopyrido[1,2-a][1,4]diazonin]-12′-yl)oxy)methoxy)carbonyl)(methyl)amino)-pyridin-3-yl)methyl)-N-(((phosphonooxy)methoxy)carbonyl)glycine]",–,–,–,1.48 nM,10800 nM,4660 µg/mL
"COC1=NO[C@@]2(CC[C@H](C)N3C[C@H]2n2cc(C(=O)NCc4ccc(F)cc4F)c(=O)c(OCOC(=O)OCC4(COP(=O)(O)O)CCC4)c2C3=O)C1 [Compound 48, (((3′S,5S,7′R)-10′-((2,4-difluorobenzyl)carbamoyl)-3-methoxy-3′-methyl-1′,11′-dioxo-1′,4′,5′,11′-tetrahydro-3′H,4H,7′H-spiro[isoxazole-5,6′-[2,7]methanopyrido[1,2-a][1,4]diazonin]-12′-yl)oxy)methyl ((1-((phosphonooxy)methyl)cyclobutyl)methyl) carbonate]",–,–,–,3.82 nM,15700 nM,4920 µg/mL
"CC1=NO[C@@]2(CC[C@H](C)N3C[C@H]2n2cc(C(=O)NCc4ccc(F)cc4F)c(=O)c(OCOC(=O)N(C)c4ncccc4COC(=O)[C@H](C)N)c2C3=O)C1 [Compound 11, (2-((((((3′S,5S,7′R)-10′-((2,4-difluorobenzyl)carbamoyl)-3,3′-dimethyl-1′,11′-dioxo-1′,4′,5′,11′-tetrahydro-3′H,4H,7′H-spiro[isoxazole-5,6′-[2,7]methanopyrido[1,2-a][1,4]diazonin]-12′-yl)oxy)methoxy)carbonyl)(methyl)amino)pyridin-3-yl)methyl L-alaninate]",–,–,–,1.9 nM,14500 nM,2 µg/mL
"CC1=NO[C@@]2(CC[C@H](C)N3C[C@H]2n2cc(C(=O)NCc4ccc(F)cc4F)c(=O)c(OCc4oc(=O)oc4C)c2C3=O)C1 [Compound 22, (3′S,5S,7′R)—N-(2,4-difluorobenzyl)-3,3′-dimethyl-12′-((5-methyl-2-oxo-1,3-dioxol-4-yl)methoxy)-1′,11′-dioxo-1′,4′,5′,11′-tetrahydro-3′H,4H,7′H-spiro[isoxazole-5,6′-[2,7]methanopyrido[1,2-a][1,4]diazonine]-10′-carboxamide]",–,–,–,1.18 nM,12400 nM,90 µg/mL
"CC1=NO[C@@]2(CC[C@H](C)N3C[C@H]2n2cc(C(=O)NCc4ccc(F)cc4F)c(=O)c(OCOC(=O)[C@H]4[C@@H](COP(=O)(O)O)[C@@H]4C(=O)O)c2C3=O)C1 [Compound 79, (1S,2S,3S)-2-(((((3′S,5S,7′R)-10′-((2,4-difluorobenzyl)carbamoyl)-3,3′-dimethyl-1′,11′-dioxo-1′,4′,5′,11′-tetrahydro-3′H,4H,7′H-spiro[isoxazole-5,6′-[2,7]methanopyrido[1,2-a][1,4]diazonin]-12′-yl)oxy)methoxy)carbonyl)-3-((phosphonooxy)methyl)cyclopropane-1-carboxylic acid]",–,–,–,2.23 nM,12500 nM,4520 µg/mL

# Source: US20250127801A1, “BRIDGED TRICYCLIC CARBAMOYLPYRIDONE COMPOUNDS AND USES THEREOF” (priority 2023, published 2025)
